# Patent publication US9254331B2, “Sulforaphane stabilization” (AURIGA INTERNATIONAL, priority 2010, dated 2016)
# How the values were obtained:
# [1] = allyl isothiocyanate sample treated one hour in boiling water, cited from earlier work
# [2] = NMR
# [3] = Stabilization of isothiocyanates with ascorbic acid upon storage; conditions: similar study with sulforaphane
# From the text: Further, it is also known how to stabilize allyl isothiocyanate with ascorbic acid.
# [4] = remark: listed apart in the source
# Procedure: The stability of sulforaphane was investigated in the following way: a 1% sulforaphane solution is prepared in different media to be tested. The preparation, maintained in a closed container is then thermostated at 25° C., 37° C. or 40° C. Kinetic tracking is carried out by assaying the residual sulforaphane.
# The HPLC method used is the following:
# Column: Discovery C18 (15 cm×4.8 mm×5 μm)
# Mobile Phase: isocratic CH3CN/H2O (50/50)
# Injection (10 μL) after dilution of the parent solution in the mobile phase in order to obtain a sulforaphane concentration of 1 mg/mL.
# External standard: naphthalene.
# 1% of sulforaphane were placed per mL of solution containing diphospholipides such as for example Phosal®. The preparation, maintained in a closed container is then thermostated at 40° C. Kinetic tracking is carried out by assaying the residual sulforaphane:
# 1% m/m sulforaphane solutions were prepared in each anhydrous ester mentioned above. Kinetic tracking of the degradation was then carried out at 40° C. by using naphthalene as an external standard.
# Kinetic tracking of the degradation was then carried out at 40° C. by using naphthalene, as an external standard.
# [5] = mixture of isoamyl salicylate, capric/caprylic triglyceride and silicone derivative, 2% sulforaphane
# [6] = cited from earlier work
# [7] = not given; remark: listed apart in the source
# [8] = after seven months, cited from earlier work
# [9] = closed flask, non-inertized, exposed to light
structure (smiles),measurement,setting,value
"C=CC1SC=CCS1 (centres unmarked) [2-vinyl-4-1,3-dithiin]",Concentration at pH 2.7,[1],Traces
same,Concentration at pH 7.0,[1],Traces
same,Concentration at pH 9.0,[1],Traces
"C1=CSSC1 [3H-1,2-dithiolene]",Concentration at pH 2.7,[1],0.13 mg/g
same,Concentration at pH 7.0,[1],0.17 mg/g
same,Concentration at pH 9.0,[1],0.19 mg/g
"C1=CSSSC1 [4H-1,2,3-trithiin]",Concentration at pH 2.7,[1],Traces
same,Concentration at pH 7.0,[1],Traces
same,Concentration at pH 9.0,[1],Traces
"CC1CSSSS1 (centres unmarked) [5-methyl-1,2,3,4-tetrathiane]",Concentration at pH 2.7,[1],0.01 mg/g
same,Concentration at pH 7.0,[1],0.02 mg/g
same,Concentration at pH 9.0,[1],0.03 mg/g
"C=CCN=C=S [allyl isothiocyanate, reference compound]",Concentration at pH 2.7,[1],379.06 mg/g
same,Concentration at pH 7.0,[1],290.27 mg/g
same,Concentration at pH 9.0,[1],270.46 mg/g
C=CCSC#N [allyl thiocyanate],Concentration at pH 2.7,[1],9.21 mg/g
same,Concentration at pH 7.0,[1],13.84 mg/g
same,Concentration at pH 9.0,[1],12.32 mg/g
C=CCSSCC=C [diallyl disulfide],Concentration at pH 2.7,[1],8.09 mg/g
same,Concentration at pH 7.0,[1],11.47 mg/g
same,Concentration at pH 9.0,[1],12.71 mg/g
C=CCSCC=C [diallyl sulfide],Concentration at pH 2.7,[1],13.09 mg/g
same,Concentration at pH 7.0,[1],22.16 mg/g
same,Concentration at pH 9.0,[1],26.40 mg/g
C=CCSSSSCC=C [diallyl tetrasulfide],Concentration at pH 2.7,[1],Traces
same,Concentration at pH 7.0,[1],Traces
same,Concentration at pH 9.0,[1],Traces
C=CCSSSCC=C [diallyl trisulfide],Concentration at pH 2.7,[1],10.31 mg/g
same,Concentration at pH 7.0,[1],13.63 mg/g
same,Concentration at pH 9.0,[1],14.11 mg/g
C[S+]([O-])CCCCN=C=S (centres unmarked) [sulforaphane],degradation on heating with reflux in chloroform,[2]; 24 hour reflux,did not either show any degradation
same,stability in solution in DMSO,[2]; [9],stable for at least one week
same,stability in solution in chloroform,[2]; [9],stable for at least one week
same,stabilization of sulforaphane by ascorbic acid,[3],not able to stabilize
same,solubility in argan oil,argan oil,~2%
same,solubility in eglantine rose oil,eglantine rose oil,~3.5%
same,solubility in anhydrous esters,"ester 610, methyl salicylate, isoamyl salicylate (Example 1)",> 6 % (m/m)
same,solubility in jojoba oil,jojoba oil,about 0.5 % (m/m)
same,solubilization in cosmetic formulation,"mixture of isoamyl salicylate, capric/caprylic triglyceride and silicone derivative",2%
same,solubility in pure anhydrous esters,"triethylpropane triostearate, coco caprylate-caprate (Example 4)",> 6 % (m/m)
same,degradation in 2-octyl-dodecanol and dimethyl isosorbide,[4]; 1% (m/m) in 2-octyl-dodecanol (Nerol 20) and dimethyl isosorbide,degraded over time
same,degradation in vegetable oils,"[4]; 1% (m/m) in jojoba, argan and eglantine rose oils",too substantial to allow commercial use
same,degradation in isostearate and coco caprylate-caprate,"[4]; 1% (m/m) in triethylpropane triostearate and coco caprylate-caprate CCC, 40° C.",negligible
same,degradation in phospholipid medium,"[4]; 1% in solution containing phospholipids (Phosal), 40° C., in less than 3 days",more than 40%
same,degradation in anhydrous esters,"[4]; 1% m/m in ester 610, methyl salicylate, isoamyl salicylate, 40° C.",negligible
same,loss of sulforaphane,"[4]; 1% solution in water, 40° C., after 2 days",10%
same,remaining fraction of initial content,"[4]; 1% solution in water, 40° C., after 10 days",50%
same,degradation in cosmetic formulation,"[4]; 2% (m/m) in isoamyl salicylate, capric/caprylic triglyceride and silicone derivative, 6 months at 40° C.",3-5%
same,degradation in galenic formulation,"[4]; 2% sulforaphane, 2 anhydrous esters and methylpolysiloxane A or B",no degradation is observed
same,time after which residual sulforaphane begins to fall,"[4]; antioxidant hydro-alcoholic medium, 25° C.",1 days
same,remaining fraction of initial amount,"[4]; antioxidant hydro-alcoholic medium, 37° C., in less than 7 days",no more than 50%
same,degradation trend in ethanol,"[4]; ethanol, 40° C., early days, coupling compound with ethanol formed",very dearly marked
same,degradation in tocopheryl acetate,[4]; tocopheryl acetate,no significant degradation
same,penetration into the skin,[5],good penetration into the skin
same,degradation under accelerated versus normal ageing conditions,"[6]; 50% of acacia gum, 40° C./75% humidity versus 25° C./60% humidity",twice more significant
same,degradation with 70% gum arabic at 25° C.,"[6]; 70% gum arabic, 25° C., first week, then relatively stable",slight degradation
same,degradation with 70% gum arabic,"[6]; 70% gum arabic, after one month, 40° C.",≤ 30%
same,stabilization with 50% of acacia gum,[6]; sample having 50% of acacia gum,does not exhibit any particular stabilization
same,product degraded into 3-butenylisothiocyanate on injection in gas chromatography,[7]; thermostated injector at 250° C.,80%
same,degradation when injected directly onto the column,[7]; without passing through the injector,no degradation peak is observed
same,degradation with less suitable cyclodextrins,"[8]; less suitable, not very stabilizing cyclodextrins",up to 50%
same,degradation with α-cyclodextrins,[8]; α-cyclodextrins,less than 10%
